Assay results reported in ChEMBL document CHEMBL5344402, “A multi-target directed ligands strategy for the treatment of Alzheimer's disease: Dimethyl fumarate plus Tranilast modified Dithiocarbate as AChE inhibitor and Nrf2 activator” (Eur J Med Chem, 2022).

What was measured:
Acetylcholinesterase [1] = target: Acetylcholinesterase (Electrophorus electricus, UniProt O42275); test: Inhibition of electric eel AChE using acetylthiocholine iodide as substrate preincubated for 5 mins followed by substrate addition by DTNB reagent based Ellman's method
[2] = target: Cholinesterase (Equus caballus) (UniProt P81908); test: Inhibition of equine serum BuChE using butyrylthiocholine iodide as substrate at 10 uM preincubated for 5 mins followed by substrate addition by DTNB reagent based Ellman's method relative to control; type: cell-free
Acetylcholinesterase [3] = target: Acetylcholinesterase (Homo sapiens, UniProt P22303); test: Inhibition of human AChE using acetylthiocholine iodide as substrate preincubated for 5 mins followed by substrate addition by DTNB reagent based Ellman's method
in vitro = conditions: PAMPA
[4] = target: Cholinesterase (Homo sapiens) (UniProt P06276); test: Inhibition of human BuChE using butyrylthiocholine iodide as substrate at 10 uM preincubated for 5 mins followed by substrate addition by DTNB reagent based Ellman's method relative to control
Chain of Cholinesterase (Homo sapiens) (P06276 whole entry): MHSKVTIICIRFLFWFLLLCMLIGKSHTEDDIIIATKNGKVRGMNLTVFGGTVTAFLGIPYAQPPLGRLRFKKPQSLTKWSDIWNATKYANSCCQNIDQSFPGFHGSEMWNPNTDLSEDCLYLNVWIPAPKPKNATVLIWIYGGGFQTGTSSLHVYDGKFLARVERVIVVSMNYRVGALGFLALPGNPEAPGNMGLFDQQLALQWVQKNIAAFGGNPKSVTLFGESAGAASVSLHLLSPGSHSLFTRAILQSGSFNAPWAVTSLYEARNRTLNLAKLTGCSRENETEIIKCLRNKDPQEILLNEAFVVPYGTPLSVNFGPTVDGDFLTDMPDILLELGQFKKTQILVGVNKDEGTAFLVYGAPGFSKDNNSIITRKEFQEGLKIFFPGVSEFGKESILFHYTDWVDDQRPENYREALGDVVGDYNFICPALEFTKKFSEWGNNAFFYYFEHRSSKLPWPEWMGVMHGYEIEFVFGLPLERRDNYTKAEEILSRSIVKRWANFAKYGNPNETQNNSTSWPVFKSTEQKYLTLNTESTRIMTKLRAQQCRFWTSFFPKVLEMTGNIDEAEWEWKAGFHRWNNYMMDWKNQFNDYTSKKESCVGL

Chain of Acetylcholinesterase (Electrophorus electricus, UniProt O42275) (O42275 whole entry): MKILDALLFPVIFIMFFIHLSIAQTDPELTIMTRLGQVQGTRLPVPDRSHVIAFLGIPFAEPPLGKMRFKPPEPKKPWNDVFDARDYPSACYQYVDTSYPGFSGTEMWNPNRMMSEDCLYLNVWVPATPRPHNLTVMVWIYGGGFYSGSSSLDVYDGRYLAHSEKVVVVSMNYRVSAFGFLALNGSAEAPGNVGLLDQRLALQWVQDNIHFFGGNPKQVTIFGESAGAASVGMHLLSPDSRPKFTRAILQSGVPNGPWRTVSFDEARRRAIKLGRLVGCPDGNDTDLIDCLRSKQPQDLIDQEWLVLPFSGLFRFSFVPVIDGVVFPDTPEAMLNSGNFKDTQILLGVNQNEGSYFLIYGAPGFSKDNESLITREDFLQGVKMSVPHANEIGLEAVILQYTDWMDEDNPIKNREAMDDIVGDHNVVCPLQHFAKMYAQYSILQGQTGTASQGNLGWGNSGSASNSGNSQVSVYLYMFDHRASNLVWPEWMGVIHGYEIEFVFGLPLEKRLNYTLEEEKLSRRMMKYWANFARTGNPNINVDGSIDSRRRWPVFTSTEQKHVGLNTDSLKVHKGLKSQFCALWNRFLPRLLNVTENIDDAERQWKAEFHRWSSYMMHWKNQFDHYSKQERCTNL
Chain of Cholinesterase (Equus caballus) (P81908 whole entry): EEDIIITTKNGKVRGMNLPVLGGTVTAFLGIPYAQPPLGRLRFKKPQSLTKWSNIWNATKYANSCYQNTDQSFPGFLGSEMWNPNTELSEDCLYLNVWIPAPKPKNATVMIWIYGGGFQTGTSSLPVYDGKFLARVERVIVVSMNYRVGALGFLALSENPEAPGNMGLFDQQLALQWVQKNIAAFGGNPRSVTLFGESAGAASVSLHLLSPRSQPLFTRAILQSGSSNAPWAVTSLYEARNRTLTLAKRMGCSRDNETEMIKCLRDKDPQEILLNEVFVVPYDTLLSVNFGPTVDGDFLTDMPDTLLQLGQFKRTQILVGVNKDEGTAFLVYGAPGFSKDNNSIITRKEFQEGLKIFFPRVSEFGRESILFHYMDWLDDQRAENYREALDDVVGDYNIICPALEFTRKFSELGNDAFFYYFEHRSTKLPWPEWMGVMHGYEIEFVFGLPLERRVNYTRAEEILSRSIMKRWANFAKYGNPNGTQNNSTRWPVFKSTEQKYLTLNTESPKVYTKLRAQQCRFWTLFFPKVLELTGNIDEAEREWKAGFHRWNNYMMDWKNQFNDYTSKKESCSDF
Chain of Acetylcholinesterase (Homo sapiens, UniProt P22303) (P22303 whole entry): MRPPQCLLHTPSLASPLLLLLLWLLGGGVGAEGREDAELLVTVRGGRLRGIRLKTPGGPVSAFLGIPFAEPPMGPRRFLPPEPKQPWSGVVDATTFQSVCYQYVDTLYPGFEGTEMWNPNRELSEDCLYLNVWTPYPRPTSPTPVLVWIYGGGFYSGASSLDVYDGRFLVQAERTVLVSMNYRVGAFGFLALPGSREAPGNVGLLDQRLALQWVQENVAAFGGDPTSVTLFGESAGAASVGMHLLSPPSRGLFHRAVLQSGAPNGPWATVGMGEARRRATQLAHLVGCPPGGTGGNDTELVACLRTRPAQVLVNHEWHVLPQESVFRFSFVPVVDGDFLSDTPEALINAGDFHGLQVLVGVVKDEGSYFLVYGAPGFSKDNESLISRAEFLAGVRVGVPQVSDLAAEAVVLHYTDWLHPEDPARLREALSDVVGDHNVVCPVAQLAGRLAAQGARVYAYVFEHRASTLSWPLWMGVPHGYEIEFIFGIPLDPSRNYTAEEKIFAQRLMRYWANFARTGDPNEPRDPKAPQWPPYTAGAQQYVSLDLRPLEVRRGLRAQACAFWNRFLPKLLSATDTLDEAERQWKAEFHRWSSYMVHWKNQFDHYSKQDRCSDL

`COC(=O)/C=C/C(=O)Nc1cccc(OCCCCSC(=S)N2CCC(N3CCCCC3)CC2)c1` showed an IC50 (Acetylcholinesterase [1]) of 12.7 µM and an inhibition [2] of 5.6%.

`CCN(CC)C(=S)SCCCCOc1cccc(NC(=O)/C=C/C(=O)OC)c1` gave an IC50 (Acetylcholinesterase [1]) of 11.3 µM and an inhibition [2] of over 5%.

Molecule `COC(=O)/C=C/C(=O)Nc1cccc(OCCSC(=S)N2CCCCC2)c1` has an IC50 (Acetylcholinesterase [3]) of 1.39 µM, an IC50 (Acetylcholinesterase [1]) of 2.56 µM and a Papp at 18 h (in vitro) of 213 nm/s. For the same molecule, the inhibition [2] was 12.8% and the inhibition [4] was 6.83%.

In the case of `COC(=O)/C=C/C(=O)Nc1cccc(OCCCCSC(=S)N2CCN(C)CC2)c1`, the IC50 (Acetylcholinesterase [1]) is reported as 91.6 µM and the inhibition [2] is reported as over 5%.

`COC(=O)/C=C/C(=O)Nc1cccc(OCCCCSC(=S)N2CCCC2)c1` gave an IC50 (Acetylcholinesterase [3]) of 6.04 µM, an IC50 (Acetylcholinesterase [1]) of 8.14 µM and a Papp at 18 h (in vitro) of 104 nm/s. The inhibition [2] was 8.8% and the inhibition [4] was under 5%.

Molecule `COC(=O)/C=C/C(=O)Nc1cccc(OCCCCCCSC(=S)N2CCCCC2)c1` has an IC50 (Acetylcholinesterase [1]) of 28.7 µM and an inhibition [2] of under 5%.

For `COC(=O)/C=C/C(=O)Nc1cccc(OCCCSC(=S)N2CCCCC2)c1`, the IC50 (Acetylcholinesterase [3]) was 1.98 µM, the IC50 (Acetylcholinesterase [1]) was 2.38 µM and the Papp at 18 h (in vitro) was 130 nm/s. The inhibition [2] was 13.2% and the inhibition [4] was 7.06%.

With `COC(=O)/C=C/C(=O)Nc1cccc(OCCCCSC(=S)N2C(C)CCCC2C)c1` (configuration not stated) the IC50 (Acetylcholinesterase [1]) was 16.5 µM and the inhibition [2] was 7.14%.

Work on `COC(=O)/C=C/C(=O)Nc1cccc(OCCCCSC(=S)N2CCOCC2)c1` yielded an IC50 (Acetylcholinesterase [1]) of 74.2 µM and an inhibition [2] of 6.88%.
